tested on: Acinetobacter baumannii (ATCC 19606); test: Anti-bacterial activity assay; format: cell-based; conditions: ATCC19606, 50 µM
How it was run: (§1)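 Compounds tested once at 50 µM in duplicate against mid-log cultures at 5 × 10^5 CFU/mL, incubated 18 h at 37 °C without shaking. Growth read by absorbance at 600 nm; percentage inhibition calculated relative to bacteria-only wells. Vancomycin (Gram-positive) and colistin (Gram-negative) served as plate controls.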

SMILES | inhibition at 50 µM [%]
CCOc1ccc(CCNC(=O)c2ccc3c(c2)nc2n3CCOC2)cc1OCC [SN00792841, CCOc1cc(CCNC(=O)c2ccc3c(c2)nc2COCCn32)ccc1OCC] | 2.57
COc1ccccc1N1CCN(C(=O)c2cc3c(C)nn(-c4ccc(C)cc4)c3s2)CC1 [SN00793100, COc1ccccc1N1CCN(CC1)C(=O)c1cc2c(C)nn(c3ccc(C)cc3)c2s1] | 9.06

tested on: Klebsiella pneumoniae (ATCC 700603); test: Anti-bacterial activity assay; format: cell-based; conditions: ATCC700603, 50 µM, read-out: Bacterial Inhibition K. pneumoniae
How it was run: as §1

SMILES | inhibition at 50 µM [%]
CCOc1ccc(CCNC(=O)c2ccc3c(c2)nc2n3CCOC2)cc1OCC [SN00792841, CCOc1cc(CCNC(=O)c2ccc3c(c2)nc2COCCn32)ccc1OCC] | 7.3
COc1ccccc1N1CCN(C(=O)c2cc3c(C)nn(-c4ccc(C)cc4)c3s2)CC1 [SN00793100, COc1ccccc1N1CCN(CC1)C(=O)c1cc2c(C)nn(c3ccc(C)cc3)c2s1] | 7.52

tested on: methicillin resistant Staphylococcus aureus (ATCC 43300); test: Anti-bacterial activity assay; format: cell-based; conditions: Staphylococcus aureus, ATCC43300, 50 µM; read-out: Bacterial Inhibition S. aureus
How it was run: as §1

SMILES | inhibition at 50 µM [%]
CCOc1ccc(CCNC(=O)c2ccc3c(c2)nc2n3CCOC2)cc1OCC [SN00792841, CCOc1cc(CCNC(=O)c2ccc3c(c2)nc2COCCn32)ccc1OCC] | -0.24
COc1ccccc1N1CCN(C(=O)c2cc3c(C)nn(-c4ccc(C)cc4)c3s2)CC1 [SN00793100, COc1ccccc1N1CCN(CC1)C(=O)c1cc2c(C)nn(c3ccc(C)cc3)c2s1] | 10.1

tested on: Escherichia coli (ATCC 25922); test: Anti-bacterial activity assay; format: cell-based; conditions: Escherichia coli, ATCC25922, 50 µM; read-out: Bacterial Inhibition E. coli
How it was run: as §1

SMILES | inhibition at 50 µM [%]
CCOc1ccc(CCNC(=O)c2ccc3c(c2)nc2n3CCOC2)cc1OCC [SN00792841, CCOc1cc(CCNC(=O)c2ccc3c(c2)nc2COCCn32)ccc1OCC] | -0.09
COc1ccccc1N1CCN(C(=O)c2cc3c(C)nn(-c4ccc(C)cc4)c3s2)CC1 [SN00793100, COc1ccccc1N1CCN(CC1)C(=O)c1cc2c(C)nn(c3ccc(C)cc3)c2s1] | 1.35

tested on: Neonatal foreskin fibroblast (NFF) cells; test: Mammalian cell cytotoxicity assay (sulforhodamine B); format: cell-based, human; conditions: Homo sapiens, NFF; 20 µM; ±SD
How it was run: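 Cytotoxicity against neonatal foreskin fibroblasts was read by sulforhodamine B staining, with media-only, untreated, DMSO-vehicle and chloroquine controls. Dose–response started at 100 µM. Selectivity index = NFF IC50 divided by G. duodenalis BRIS/91/HEPU/1279 IC50.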

SMILES | inhibition at 20 µM [%]
CCOc1ccc(CCNC(=O)c2ccc3c(c2)nc2n3CCOC2)cc1OCC [SN00792841, CCOc1cc(CCNC(=O)c2ccc3c(c2)nc2COCCn32)ccc1OCC] | -24.8 ± 15.3
COc1ccccc1N1CCN(C(=O)c2cc3c(C)nn(-c4ccc(C)cc4)c3s2)CC1 [SN00793100, COc1ccccc1N1CCN(CC1)C(=O)c1cc2c(C)nn(c3ccc(C)cc3)c2s1] | 46.7 ± 6.8

same assay, conditions: Table S2; NFF vs 48 h Giardia IC50

SMILES | SI (48h Gd)
CCOc1ccc(CCNC(=O)c2ccc3c(c2)nc2n3CCOC2)cc1OCC [SN00792841, CCOc1cc(CCNC(=O)c2ccc3c(c2)nc2COCCn32)ccc1OCC] | > 4

tested on: G. duodenalis BRIS/91/HEPU/1279; test: Primary Giardia screen at 10 µM (live-cell imaging, automated counting); format: cell-based, Giardia duodenalis; conditions: Giardia duodenalis, 24 h, first singlicate assay, read-out: % Inhibition n=1 24h
How it was run: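 Compounds were tested once each at 10 μM final (0.2% DMSO) in culture medium under 3% O2, 5% CO2 in N2. Growth was read at 24 and 48 h by live-cell imaging with automated counting, and inhibition expressed as percent growth versus 0.2% DMSO vehicle after media-only background subtraction.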

SMILES | inhibition at 10 µM [%]
CCOc1ccc(CCNC(=O)c2ccc3c(c2)nc2n3CCOC2)cc1OCC [SN00792841, CCOc1cc(CCNC(=O)c2ccc3c(c2)nc2COCCn32)ccc1OCC] | 41.7
COc1ccccc1N1CCN(C(=O)c2cc3c(C)nn(-c4ccc(C)cc4)c3s2)CC1 [SN00793100, COc1ccccc1N1CCN(CC1)C(=O)c1cc2c(C)nn(c3ccc(C)cc3)c2s1] | 51.9

same assay, conditions: Giardia duodenalis, 24 h, re-assessment, read-out: % Inhibition n=2 24h

SMILES | inhibition at 10 µM [%]
CCOc1ccc(CCNC(=O)c2ccc3c(c2)nc2n3CCOC2)cc1OCC [SN00792841, CCOc1cc(CCNC(=O)c2ccc3c(c2)nc2COCCn32)ccc1OCC] | 12.7
COc1ccccc1N1CCN(C(=O)c2cc3c(C)nn(-c4ccc(C)cc4)c3s2)CC1 [SN00793100, COc1ccccc1N1CCN(CC1)C(=O)c1cc2c(C)nn(c3ccc(C)cc3)c2s1] | 44

same assay, conditions: Giardia duodenalis, 24 h, read-out: Average % Inhibition 24h

SMILES | inhibition at 10 µM [%]
CCOc1ccc(CCNC(=O)c2ccc3c(c2)nc2n3CCOC2)cc1OCC [SN00792841, CCOc1cc(CCNC(=O)c2ccc3c(c2)nc2COCCn32)ccc1OCC] | 27.2
COc1ccccc1N1CCN(C(=O)c2cc3c(C)nn(-c4ccc(C)cc4)c3s2)CC1 [SN00793100, COc1ccccc1N1CCN(CC1)C(=O)c1cc2c(C)nn(c3ccc(C)cc3)c2s1] | 48

same assay, conditions: Giardia duodenalis, 48 h, first singlicate assay, read-out: % Inhibition n=1 48h

SMILES | inhibition at 10 µM [%]
CCOc1ccc(CCNC(=O)c2ccc3c(c2)nc2n3CCOC2)cc1OCC [SN00792841, CCOc1cc(CCNC(=O)c2ccc3c(c2)nc2COCCn32)ccc1OCC] | 88.5
COc1ccccc1N1CCN(C(=O)c2cc3c(C)nn(-c4ccc(C)cc4)c3s2)CC1 [SN00793100, COc1ccccc1N1CCN(CC1)C(=O)c1cc2c(C)nn(c3ccc(C)cc3)c2s1] | 62.1

same assay, conditions: Giardia duodenalis, 48 h, re-assessment, read-out: % Inhibition n=2 48h

SMILES | inhibition at 10 µM [%]
CCOc1ccc(CCNC(=O)c2ccc3c(c2)nc2n3CCOC2)cc1OCC [SN00792841, CCOc1cc(CCNC(=O)c2ccc3c(c2)nc2COCCn32)ccc1OCC] | 71.1
COc1ccccc1N1CCN(C(=O)c2cc3c(C)nn(-c4ccc(C)cc4)c3s2)CC1 [SN00793100, COc1ccccc1N1CCN(CC1)C(=O)c1cc2c(C)nn(c3ccc(C)cc3)c2s1] | 69.2

same assay, conditions: Giardia duodenalis, 48 h, read-out: Average % Inhibition 48h

SMILES | inhibition at 10 µM [%]
CCOc1ccc(CCNC(=O)c2ccc3c(c2)nc2n3CCOC2)cc1OCC [SN00792841, CCOc1cc(CCNC(=O)c2ccc3c(c2)nc2COCCn32)ccc1OCC] | 79.8
COc1ccccc1N1CCN(C(=O)c2cc3c(C)nn(-c4ccc(C)cc4)c3s2)CC1 [SN00793100, COc1ccccc1N1CCN(CC1)C(=O)c1cc2c(C)nn(c3ccc(C)cc3)c2s1] | 65.6

tested on: G. duodenalis BRIS/91/HEPU/1279; test: Giardia dose response assay, assemblage B; format: cell-based, Giardia duodenalis; conditions: Giardia duodenalis, 24 h, read-out: G. duodenalis IC50 24h, Table S2; 24 h; ±SD; max 10 µM
How it was run: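 Assemblage B trophozoites (BRIS/91/HEPU/1279, 1.5 × 10^4 parasites/well) faced 8–12-point doubling dilutions in duplicate, incubated 48 h at 37 °C under 3% O2, 5% CO2 in N2. Parasites were imaged and counted at 24 and 48 h. Growth inhibition was taken versus vehicle controls minus background, with IC50 by log-linear interpolation.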

SMILES | IC50 [µM]
CCOc1ccc(CCNC(=O)c2ccc3c(c2)nc2n3CCOC2)cc1OCC [SN00792841, CCOc1cc(CCNC(=O)c2ccc3c(c2)nc2COCCn32)ccc1OCC] | > 10
COc1ccccc1N1CCN(C(=O)c2cc3c(C)nn(-c4ccc(C)cc4)c3s2)CC1 [SN00793100, COc1ccccc1N1CCN(CC1)C(=O)c1cc2c(C)nn(c3ccc(C)cc3)c2s1] | > 10

same assay, conditions: Giardia duodenalis, 48 h, Table S2; 48 h; ±SD; max 10 µM; read-out: G. duodenalis IC50 48h

SMILES | IC50 [µM]
CCOc1ccc(CCNC(=O)c2ccc3c(c2)nc2n3CCOC2)cc1OCC [SN00792841, CCOc1cc(CCNC(=O)c2ccc3c(c2)nc2COCCn32)ccc1OCC] | 4.75 ± 4.02
COc1ccccc1N1CCN(C(=O)c2cc3c(C)nn(-c4ccc(C)cc4)c3s2)CC1 [SN00793100, COc1ccccc1N1CCN(CC1)C(=O)c1cc2c(C)nn(c3ccc(C)cc3)c2s1] | > 10
